Source: patent US20180289655A1, “Methods and Compositions for the Intravenous Administration of Fumarates for the Treatment of Neurological Diseases” (Biogen MA Inc., priority 2015, published 2018)
Counter-ions that a name gives are not always drawn. Like-named read-outs stand apart in the source and are kept apart here.

Tests used:
[1] = MMF exposure in plasma and tissues after DMF PO/IV or MMF IV (LC-MS/MS); format: in vivo, C57BL/6 mice
Description: Aliquots (25 μL) of either plasma or tissue homogenate samples were extracted by protein precipitation with acetonitrile containing 4C13-MMF as the internal standard. For tissue samples, aliquots of homogenization solution (plasma with 12.5 mg/mL of NaF) were added to the tissue samples. The tissue samples were homogenized at 6.5 m/s for 60 seconds on a Fast Prep Tissue Homogenizer prior to protein precipitation. Concentrations of MMF in plasma, brain, jejunum and kidney samples were determined using qualified LC-MS/MS assays in the respective matrices. Data collections and integrations were accomplished using an API 5500 triple quadrupole mass spectrometer with a turbo ion spray interface (AB Sciex, Foster City, Calif.), and Analyst software (version 1.6.1). The peak area ratios of MMF relative to its internal standard were used to construct a standard curve using a quadratic regression with a 1/x^2 weighting. The lower limits of quantitation (LLOQ) were 1 ng/mL for the three tissue assays and 10 ng/mL for the plasma assay, respectively. The performances of the assays were monitored by the precision and accuracy of the standards and quality control samples.
MMF exposure levels were evaluated 10 minutes and 2 hours after dosing, while pharmacodynamic transcriptional responses were analyzed at 2 hours post-dose.
At the 10-minute time point, 4 animals from each group were sacrificed, with plasma and tissues (brain, jejunum and kidney) collected to determine MMF exposure. Two hours after dosing, the remaining 4 animals were sacrificed, and plasma and tissues were collected. Tissue samples from the 2-hour time point were divided, with half of each sample used for MMF exposure analysis, and half for RNA extraction and qRT-PCR to evaluate the expression of Nrf2 target genes.
MMF exposure levels were evaluated 10 minutes and 2 hours after dosing, while transcriptional pharmacodynamic responses were analyzed at 2 and 6 hours post-dose. A complete blood count (CBC) with differential panel was performed at 10 minutes, 2 hours, and 6 hours post-dose.
Ten minutes after dosing, 4 animals from each group were sacrificed, and plasma and tissues (brain, kidney, jejunum and spleen) were collected to quantify MMF exposure levels, as well as whole blood to perform CBC. Two hours post-dose, another 4 animals from each group were sacrificed, and plasma, whole blood, and tissues were collected. Tissue samples from the 2-hour time point were split, with half of each sample used for MMF exposure analysis, and half for RNA extraction/qRT-PCR to evaluate the expression of Nrf2 target genes. Six hours after dosing, the last 4 animals from each group were sacrificed, and whole blood and tissues were collected.

[2] = Solubility of DMF in aqueous media at 37° C.; format: physicochemical; conditions: thermodynamic from solid
[3] = Solution stability of DMF in aqueous solution (HPLC); format: physicochemical; set-up: DMF assay: unit not given here
Description: Solution stability studies were conducted using 0.2 mg/ml concentration solutions, which were achieved by mixing equal volumes of the stock solution and individual study media. […] Samples stored at 37° C. or ambient temperature were pulled at predetermined time points, and analyzed by HPLC.

[4] = SGF (without pepsin), 0.2 mg/ml, initial
[5] = SGF (without pepsin), 37° C., 24 hr
[6] = SGF (without pepsin), ambient temperature, 24 hr
[7] = SGF (without pepsin), ambient temperature, 48 hr
[8] = SGF (without pepsin), ambient temperature, 72 hr
[9] = SIF (without pancreatin), 0.2 mg/ml, initial
[10] = SIF (without pancreatin), 37° C., 24 hr
[11] = SIF (without pancreatin), ambient temperature, 24 hr
[12] = SIF (without pancreatin), ambient temperature, 48 hr
[13] = SIF (without pancreatin), ambient temperature, 72 hr
[14] = Water, ambient temperature, 24 hr
[15] = Water, ambient temperature, 48 hr
[16] = Water, ambient temperature, 72 hr
[17] = pH 2 Citrate Buffer, 0.2 mg/ml, initial
[18] = pH 2 Citrate Buffer, 37° C., 24 hr
[19] = pH 2 Citrate Buffer, ambient temperature, 24 hr
[20] = pH 2 Citrate Buffer, ambient temperature, 48 hr
[21] = pH 2 Citrate Buffer, ambient temperature, 72 hr
[22] = pH 4 Citrate Buffer, 0.2 mg/ml, initial
[23] = pH 4 Citrate Buffer, 37° C., 24 hr
[24] = pH 4 Citrate Buffer, ambient temperature, 24 hr
[25] = pH 4 Citrate Buffer, ambient temperature, 48 hr
[26] = pH 4 Citrate Buffer, ambient temperature, 72 hr
[27] = pH 6 Citrate Buffer, 0.2 mg/ml, initial
[28] = pH 6 Citrate Buffer, 37° C., 24 hr
[29] = pH 6 Citrate Buffer, ambient temperature, 24 hr
[30] = pH 6 Citrate Buffer, ambient temperature, 48 hr
[31] = pH 6 Citrate Buffer, ambient temperature, 72 hr
[32] = pH 8 Borate Buffer, 0.2 mg/ml, initial
[33] = pH 8 Borate Buffer, 37° C., 24 hr
[34] = pH 8 Borate Buffer, ambient temperature, 24 hr
[35] = pH 10 Borate Buffer, 0.2 mg/ml, initial
[36] = pH 10 Borate Buffer, 37° C., 24 hr
[37] = pH 10 Borate Buffer, ambient temperature, 24 hr

**Q.** What does the source list for `COC(=O)/C=C/C(=O)OC` [DMF, dimethyl fumarate]?
**A.** MMF level in plasma ([1]; Study 1, IV DMF, 2 hours): no detectable MMF in plasma; MMF level in any tissue ([1]; Study 1, PO or IV DMF, 2 hours): no detectable MMF in any tissue; MMF level in plasma or any tissues ([1]; Study 2, 2 hours, DMF 30 mg/kg or MMF 27.08 mg/kg IV): no detectable MMF in plasma or in any tissues; MMF levels in kidney, jejunum and spleen, DMF versus MMF ([1]; Study 2, IV, 10 minutes): no significant differences were noted in MMF levels; solubility at 24 h ([2]; pH 2 citrate buffer, pH 2, aqueous buffer, pH 2 Citrate Buffer, pH 1.93, read-out: Solubility): 3770 µg/mL; solubility at 24 h ([2]; pH 2 citrate buffer, pH 2, aqueous buffer, pH 2 Citrate Buffer, read-out: Solubility Description): 1000 to 10000 µg/mL; solubility at 24 h ([2]; pH 4 citrate buffer, pH 4, aqueous buffer, pH 4 Citrate Buffer, pH 3.89, read-out: Solubility): 3320 µg/mL; solubility at 24 h ([2]; pH 4 citrate buffer, pH 4, aqueous buffer, pH 4 Citrate Buffer, read-out: Solubility Description): 1000 to 10000 µg/mL; solubility at 24 h ([2]; pH 6 citrate buffer, pH 6, aqueous buffer, pH 6 Citrate Buffer, pH 6.01, read-out: Solubility): 3470 µg/mL; solubility at 24 h ([2]; pH 6 citrate buffer, pH 6, aqueous buffer, pH 6 Citrate Buffer, read-out: Solubility Description): 1000 to 10000 µg/mL; solubility at 24 h ([2]; pH 8 borate buffer, pH 8, aqueous buffer, pH 8 Borate Buffer, pH 5.44, read-out: Solubility): 4020 µg/mL; solubility at 24 h ([2]; pH 8 borate buffer, pH 8, aqueous buffer, pH 8 Borate Buffer, read-out: Solubility Description): 1000 to 10000 µg/mL; solubility at 24 h ([2]; pH 10 borate buffer, pH 10, aqueous buffer, pH 10 Borate Buffer, pH 5.49, read-out: Solubility): 3570 µg/mL; solubility at 24 h ([2]; pH 10 borate buffer, pH 10, aqueous buffer, pH 10 Borate Buffer, read-out: Solubility Description): 1000 to 10000 µg/mL; solubility at 24 h ([2]; simulated gastric fluid (SGF, without pepsin), pH 6.9, simulated gastric fluid, SGF (without pepsin), pH 6.90, read-out: Solubility): 2950 µg/mL; solubility at 24 h ([2]; simulated gastric fluid without pepsin, pH 1.2, simulated gastric fluid, SGF (without pepsin), read-out: Solubility Description): 1000 to 10000 µg/mL; solubility at 24 h ([2]; simulated intestinal fluid (SIF, without pancreatin), pH 1.2, fassgf or other biorelevant, SIF (without pancreatin), pH 1.20, read-out: Solubility): 3110 µg/mL; solubility at 24 h ([2]; simulated intestinal fluid without pancreatin, pH 6.9, fassgf or other biorelevant, SIF (without pancreatin), read-out: Solubility Description): 1000 to 10000 µg/mL; solubility at 24 h ([2]; water, pH 5.2, water, Water, pH 5.20, read-out: Solubility): 2840 µg/mL; solubility at 24 h ([2]; water, pH 5.2, water, Water, read-out: Solubility Description): 1000 to 10000 µg/mL; Stability of DMF in solution at higher pH ([3]; 37° C., aqueous media): decreased rapidly as the solution pH went above 7; pH of maximum stability of DMF in solution ([3]; 37° C., aqueous media): ~4; DMF area % [3, 4]: 99.3 area %; DMF assay [3, 4]: 102.9; DMF area % [3, 5]: 92.2 area %; DMF assay [3, 5]: 91.1; DMF area % [3, 6]: 96.6 area %; DMF assay [3, 6]: (95.2); DMF area % [3, 7]: 95.6 area %; DMF assay [3, 7]: (92.5); DMF area % [3, 8]: 95.4 area %; DMF assay [3, 8]: (91.6); DMF area % [3, 9]: 99.3 area %; DMF assay [3, 9]: 100.9; DMF area % [3, 10]: 29.5 area %; DMF assay [3, 10]: 27.8; DMF area % [3, 11]: 68.7 area %; DMF assay [3, 11]: (68.3); DMF area % [3, 12]: 64.5 area %; DMF assay [3, 12]: (60.3); DMF area % [3, 13]: 62.2 area %; DMF assay [3, 13]: (59.0); DMF area % ([3]; Water, 0.2 mg/ml, initial): 96.6 area %; DMF assay ([3]; Water, 0.2 mg/ml, initial): 98.9; DMF area % ([3]; Water, 37° C., 24 hr): 77.4 area %; DMF assay ([3]; Water, 37° C., 24 hr): 73.9; DMF area % [3, 14]: 84.8 area %; DMF assay [3, 14]: (81.6); DMF area % [3, 15]: 85.1 area %; DMF assay [3, 15]: (80.2); DMF area % [3, 16]: 83.5 area %; DMF assay [3, 16]: (79.3); DMF area % [3, 17]: 99.5 area %; DMF assay [3, 17]: 101.0; DMF area % [3, 18]: 97.9 area %; DMF assay [3, 18]: 96.0; DMF area % [3, 19]: 99.1 area %; DMF assay [3, 19]: (94.7); DMF area % [3, 20]: 98.9 area %; DMF assay [3, 20]: (93.2); DMF area % [3, 21]: 98.7 area %; DMF assay [3, 21]: (92.0); DMF area % [3, 22]: 99.8 area %; DMF assay [3, 22]: 101.9; DMF area % [3, 23]: 99.6 area %; DMF assay [3, 23]: 100.4; DMF area % [3, 24]: 99.6 area %; DMF assay [3, 24]: (97.2); DMF area % [3, 25]: 99.2 area %; DMF assay [3, 25]: (98.5); DMF area % [3, 26]: 99.6 area %; DMF assay [3, 26]: (93.9); DMF area % [3, 27]: 100 area %; DMF assay [3, 27]: 101.4; DMF area % [3, 28]: 92.6 area %; DMF assay [3, 28]: 91.8; DMF area % [3, 29]: 97.5 area %; DMF assay [3, 29]: (90.7); DMF area % [3, 30]: 95.3 area %; DMF assay [3, 30]: (92.5); DMF area % [3, 31]: 96.1 area %; DMF assay [3, 31]: (88.4); DMF area % [3, 32]: 98.6 area %; DMF assay [3, 32]: 101.0; DMF area % [3, 33]: 17.2 area %; DMF assay [3, 33]: 15.9; DMF area % [3, 34]: 46.5 area %; DMF assay [3, 34]: (44.8); DMF area % [3, 35]: 37.1 area %; DMF assay [3, 35]: 36.1; DMF area % [3, 36]: 0/0 area %; DMF assay [3, 36]: 0/0; DMF area % [3, 37]: 0/0 area %; DMF assay [3, 37]: 0/0; Degradation of DMF before initial HPLC determination ([3]; pH 10 borate buffer solution): more than half of DMF degraded before an initial concentration was able to be determined
